Laboratory results: patent publication US10813914B2, “Composition for controlling microsporidia in fishes and method for controlling microsporidia in fishes using same” (MARUHA NICHIRO CORPORATION, priority 2016, dated 2020)
Marks after values point to notes of the source that are not given here.

How the values were obtained:
[1] = tested on: microsporidian cyst (beko cyst), beko disease; assay: Prevention test using albendazole (4), two administration methods (1-6); type: in vivo, “Mojako” (yellowtail larva)
Protocol: A preliminary test was conducted using two administration methods including different administration amounts of albendazole per one operation and different administration intervals. The preliminary test was performed according to the following procedure:
(§1) Test number: Live 1000 fishes (each initial body weight: 7 g)
(§2) Administration method: oral administration (feed together with spreading agent)
(§3) Drug used: albendazole (compound represented by the above-described formula (3))
Test group 1: 20 mg/kg Bw (20 mg per kg of fish body weight)
Test group 2: 40 mg/kg Bw (40 mg per kg of fish body weight)
Test group 1: 6 times/week (administered for 16 weeks)
Test group 2: 2 times/2 week (administered for 16 weeks)
A sampling test was carried out according to the same procedure as in the above-described 1-5.

[2] = Weight, deaths and food intake of Mojako in prevention test 1-3; type: in vivo, “Mojako” (yellowtail larva); design: Weight of Mojako: unit: g; settings: 20 mg/kg Bw oral, 6 times/week
Protocol: (§4) A preliminary test was carried out according to the following procedure:
as §1
(§5) Administration amount: 20 mg/kg Bw (20 mg per kg of fish body weight)
(§6) Administration interval: 6 times/week

[3] = tested on: microsporidian cyst (beko cyst), beko disease; assay: Prevention test using albendazole (3), 16 weeks administration (1-5); type: in vivo, “Mojako” (yellowtail larva); design: Negative: unit not given here
Protocol: Administration of albendazole was continued for 16 weeks and a sampling test was performed at 2 weeks, 4 weeks, 6 weeks, 8 weeks, 12 weeks and 16 weeks after the start of administration in the same procedure as in the above-described 1-3. The sampling test was carried out in the same procedure also at 4 weeks after the termination of administration of albendazole (20 weeks after the start of administration).

beko cyst, beko disease = assay: Treatment test of Mojako infected with beko disease using albendazole (2-1); type: in vivo, “Mojako” (yellowtail larva); settings: 50 mg/kg Bw oral, 6 times/week
Protocol: 2-1: Test by Treating “Mojako” Infected with Beko Disease Using Albendazole
A treatment test was carried out according to the following procedure.
Test number: Live 1000 fishes (test samples showing apparent infection with beko disease according to visual test at the time of vaccine inoculation were selected and tested)
as §2, §3
Administration amount: 50 mg/kg Bw (50 mg per kg of fish body weight)
as §6
Samples of “Mojako” showing irregularities on the body surface with certainty of beko infection in visual test at the time of vaccine inoculation were selected and divided randomly into the control group and the test group.

[4] = tested on: microsporidian cyst (beko cyst), beko disease; assay: Prevention test using albendazole (1) (1-3); type: in vivo, “Mojako” (yellowtail larva); settings: 20 mg/kg Bw oral, 6 times/week
Protocol: 1-3. Prevention Test Using Albendazole (1)
as §4, §1, §2, §3, §5, §6
A sampling test was carried out according to the following procedure:
Every two weeks from the start of administration, each 20 fishes of “Mojako” were taken out from each test group (100 fishes of “Mojako” at 8 weeks after the start of administration) and each fish was cut into three pieces. It was then visually tested whether the microsporidian cyst (beko cyst) was found in the pieces. When the beko cyst was observed, it was judged as positive and the test results were accumulated. Regarding the beko cyst that could be confirmed with the naked eye, the number was confirmed and the average infection number per one fish was determined.

[5] = tested on: microsporidian cyst (beko cyst), beko disease; assay: Prevention test using albendazole (5) in Kanpachi (1-7); type: in vivo, “Kanpachi” (great amberjack); settings: 40 mg/kg Bw oral, 6 times/week
Protocol: A prevention test against the beko disease by administering albendazole was carried out using “Kanpachi” instead of “Mojako”.
A preliminary test was performed according to the following procedure:
Test number: Live 1000 fishes (each initial body weight: 50 g)
as §2, §3
Administration amount: 40 mg/kg Bw (40 mg per kg of fish body weight)
as §6
Sampling test procedure: same as in the above-described 1-1

[6] = tested on: microsporidian cyst (beko cyst), beko disease; assay: Prevention test using albendazole (2), reduced dose (1-4); type: in vivo, “Mojako” (yellowtail larva); settings: out of 100 fishes at 8 weeks after the start of administration
Protocol: Albendazole administration and a sampling test were carried out in the same procedure as in the above-described 1-3 except that the administration amount of albendazole was reduced to 5 or 10 mg/kg Bw. In the 10 mg/kg administration group, the number of (positive) individuals showing generation of the beko cyst was 0 out of 100 fishes of “Mojako” at 8 weeks after the start of administration. When the administration amount of albendazole was reduced to 5 mg/kg Bw, generation of the beko cyst was confirmed in 3 out of 100 fishes of “Mojako” at 8 weeks after the start of administration.

microsporidia = settings: culture test, Non-Patent Documents 3 to 7; cited from earlier work
[7] = 20 mg/kg Bw oral, 6 times/week, 2 Weeks
[8] = 20 mg/kg Bw oral, 6 times/week, 4 Weeks
[9] = 20 mg/kg Bw oral, 6 times/week, 6 Weeks
[10] = 20 mg/kg Bw oral, 6 times/week, 8 Weeks
[11] = 20 mg/kg Bw oral, 6 times/week, 12 Weeks
[12] = 20 mg/kg Bw oral, 6 times/week, 16 Weeks
[13] = 20 Weeks after start = 4 weeks after termination of 16-week administration

CCCSc1ccc2nc(NC(=O)OC)[nH]c2c1 [Albendazole, albendazole]
Positive fishes (beko cyst) / fishes sampled ([1]; Test group 1: 20 mg/kg Bw, 6 times/week for 16 weeks, 8 Weeks, p < 0.001): 0/50*** | Positive fishes (beko cyst) / fishes sampled ([1]; Test group 1: 20 mg/kg Bw, 6 times/week for 16 weeks, 16 Weeks, p < 0.0001): 0/70**** | Positive fishes (beko cyst) / fishes sampled ([1]; Test group 1: 20 mg/kg Bw, 6 times/week for 16 weeks, 24 Weeks (8 weeks after termination), 20 mg/kg): 16/50 | Positive fishes (beko cyst) / fishes sampled ([1]; Test group 1: 20 mg/kg Bw, 6 times/week for 16 weeks, 24 Weeks (8 weeks after termination), listed as albendazole, 20 mg/kg): did not continue until 8 weeks after termination of administration | Positive fishes (beko cyst) / fishes sampled ([1]; Test group 1: 20 mg/kg Bw, 6 times/week for 16 weeks, at administration start time): 0/20 | Positive fishes (beko cyst) / fishes sampled ([1]; Test group 2: 40 mg/kg Bw, 2 times/2 week for 16 weeks, 8 Weeks, p < 0.001): 0/50*** | Positive fishes (beko cyst) / fishes sampled ([1]; Test group 2: 40 mg/kg Bw, 2 times/2 week for 16 weeks, 16 Weeks, p < 0.0001): 0/70**** | Positive fishes (beko cyst) / fishes sampled ([1]; Test group 2: 40 mg/kg Bw, 2 times/2 week for 16 weeks, 24 Weeks (8 weeks after termination), p < 0.0001, 40 mg/kg): 1/50**** | Positive fishes (beko cyst) / fishes sampled ([1]; Test group 2: 40 mg/kg Bw, 2 times/2 week for 16 weeks, 24 Weeks (8 weeks after termination), p < 0.0001, listed as albendazole, 40 mg/kg): significant suppression of generation of the beko cyst | Positive fishes (beko cyst) / fishes sampled ([1]; Test group 2: 40 mg/kg Bw, 2 times/2 week for 16 weeks, at administration start time): 0/20 | Increase in the number of deaths and decline in food intake with respect to the control group ([2]; administration period): not recognized | Weight of Mojako ([2]; 0 week): 7 ± 0.53 | Weight of Mojako ([2]; 2 Weeks): 18 ± 2.38 | Weight of Mojako ([2]; 4 Weeks): 29 ± 4.16 | Weight of Mojako ([2]; 6 Weeks): 51 ± 7.13 | Body weight compared with the control group ([2]; 8 Weeks): significant increase in body weight | Influence on the growth of Mojako ([2]; 8 Weeks): does not exert a harmful influence on the growth | Weight of Mojako ([2]; 8 Weeks): 73 ± 12.6 | Infection rate [3, 7]: 0% | Negative [3, 7]: 20 | Positive [3, 7]: 0 | Infection rate [3, 8]: 0% | Negative [3, 8]: 20 | Positive [3, 8]: 0 | Negative [3, 9]: 20 | Positive [3, 9]: 0 | Infection rate ([3]; 20 mg/kg Bw oral, 6 times/week, 6 weeks, p < 0.05): 0%* | Negative [3, 10]: 100 | Positive [3, 10]: 0 | Infection rate ([3]; 20 mg/kg Bw oral, 6 times/week, 8 weeks, p < 0.01): 0%** | Negative [3, 11]: 40 | Positive [3, 11]: 0 | Infection rate ([3]; 20 mg/kg Bw oral, 6 times/week, 12 Weeks, p < 0.01): 0%** | Negative [3, 12]: 46 | Positive [3, 12]: 0 | Infection rate ([3]; 20 mg/kg Bw oral, 6 times/week, 16 Weeks, p < 0.01): 0%** | Negative [3, 13]: 30 | Positive [3, 13]: 0 | Infection rate ([3]; 20 Weeks after start = 4 weeks after termination of 16-week administration, p < 0.01): 0%** | Negative ([3]; Total until 16 weeks): 246 | Positive ([3]; Total until 16 weeks): 0 | Infection rate ([3]; Total until 16 weeks, p < 0.01): 0%** | Time the effect of preventing infection with microsporidia continues after administration was terminated ([3]; after 16 weeks of 20 mg/kg Bw oral, 6 times/week): at least 4 weeks | Infection rate (beko cyst, beko disease; 10 Days): 60% | Number of positive fishes (beko cyst, beko disease; 10 Days, 10 samples): 6 | Number of positive fishes (beko cyst, beko disease; 21 Days, 63 samples): 28 | Infection rate (beko cyst, beko disease; 21 Days, p < 0.01, 50 mg/kg): 44.4%** | Infection rate (beko cyst, beko disease; 21 Days, p < 0.01, listed as albendazole, 50 mg/kg): 44.4% | Infection rate (beko cyst, beko disease; at administration start time): 100% | Number of positive fishes (beko cyst, beko disease; at administration start time, 10 samples): 10 | Positive fishes (beko cyst) / fishes sampled ([4]; 2 week): 0/20 | Positive fishes (beko cyst) / fishes sampled ([4]; 4 Weeks): 0/20 | Positive fishes (beko cyst) / fishes sampled ([4]; 6 weeks, p < 0.05): 0/20* | Positive fishes (beko cyst) / fishes sampled ([4]; 8 weeks, p < 0.01): 0/100** | Positive fishes (beko cyst) / fishes sampled ([4]; Total of 2-8 weeks, p < 0.01): 0/160** | Positive fishes (beko cyst) / fishes sampled ([4]; Total of 2-8 weeks, p < 0.01, listed as albendazole): no positive was found | Positive fishes (beko cyst) / fishes sampled ([5]; 8 Weeks, p < 0.01, 40 mg/kg): 1/50** | Positive fishes (beko cyst) / fishes sampled ([5]; 8 Weeks, p < 0.01, listed as albendazole, 40 mg/kg): significantly suppressed generation of the beko cyst | Positive fishes (beko cyst) / fishes sampled ([5]; at administration start time): 1/20 | Number of (positive) individuals showing generation of the beko cyst ([6]; 5 mg/kg Bw oral): 3 | Number of (positive) individuals showing generation of the beko cyst ([6]; 10 mg/kg Bw oral): 0 | Antimicrobial activity against microsporidia (microsporidia): high antimicrobial activity
